# Reference: patent US8895752B2, “Alkylsulfonyl-substituted thiazolide compounds” (priority 2007, dated 2014)
# “And” between values parts separate entries of the source, which are not always exact repeats. Identical values can stand only once. Like-named read-outs stand apart in the source and are kept apart here.
# Experiments:
# HBV = HBV antiviral assay in confluent 2.2.15 cell cultures (HBV DNA, quantitative blot hybridization); type: cell-based, Hepatitis B Virus
# Experimental: EC50, EC90 and CC50 values (±standard deviations [S.D.]) were calculated by linear regression analysis using data combined from all treated cultures (Korba and Gerin, 1992; Okuse et al., 2005). […] Selectivity index (S.I.) was calculated as CC50/EC90 for HBV assays and CC50/EC50 for HCV assays. EC90 values were used for calculation of the S.I. in HBV assays since at least a 3-fold depression of HBV DNA levels is typically required to achieve statistical significance in this assay system (Korba and Gerin, 1992).
# 2.2.15 cells = test: Cytotoxicity by neutral red dye uptake in 2.2.15 cells; details: confluent 2.2.15 cultures, nine daily doses, neutral red uptake
# Experimental: (§1) HBV antiviral assays were conducted as previous described (Korba and Gerin, 1992).
# (§2) EC50, EC90 and CC50 values (±standard deviations [S.D.]) were calculated by linear regression analysis using data combined from all treated cultures (Korba and Gerin, 1992; Okuse et al., 2005). […] Selectivity index (S.I.) was calculated as CC50/EC90 for HBV assays and CC50/EC50 for HCV assays. EC90 values were used for calculation of the S.I. in HBV assays since at least a […] depression of HBV DNA levels is typically required to achieve statistical significance in this assay system (Korba and Gerin, 1992). For combination treatments, EC50, EC90, CC50 and S.I. are presented for the first compound listed. The molar ratio of the compounds in each combination is also indicated.
# Wild-type HBV = test: 5-day transient transfection assay in Huh7 cells, intracellular HBV RI by Southern blot; type: cell-based, Hepatitis B Virus; details: Wild-type, Huh7 transient transfection; for EC50: read-out: EC50
# HBV Mutant L180M/M204V = test: as above; type: cell-based, Hepatitis B Virus
# Experimental: (§3) Activity against LMV-resistant (Allen et al., 1998) and ADV-resistant (Angus et al., 2003) HBV mutants was performed in a 5-day assay using a transient transfection method as previously described (Iyer et al., 2004). Antiviral activity was determined by quantitative Southern blot hybridization of intracellular HBV DNA replication intermediates (HBV RI).
# HBV Mutant L180M = test: as above; type: cell-based, Hepatitis B Virus
# Experimental: as §3
# HBV Mutant M204I = test: as above; type: cell-based, Hepatitis B Virus
# Experimental: as §3
# HBV Mutant M204V = test: as above; type: cell-based, Hepatitis B Virus
# Experimental: as §3
# HBV Mutant N236T = test: as above; type: cell-based, Hepatitis B Virus
# Experimental: as §3
# HCV replicon = test: Primary HCV replicon cell assay; type: cell-based, Hepatitis C Virus
# Experimental: (§4) Antiviral activity of test compounds was assessed in a 3-day assay using the stably-expressing HCV replicon cell line, AVA5 (sub-genomic CON1, genotype 1b) (Blight et al., 2000) maintained as sub-confluent cultures on 96-well plates as previously described (Okuse et al., 2005). Antiviral activity was determined by blot hybridization analysis of intracellular HCV RNA (normalized to the level of cellular B-actin RNA in each culture sample) and cytotoxicity was assessed by neutral red dye uptake after 3 days of treatment. Additional studies were performed using Huh7 cells containing another HCV replicon, H/FL-Neo, a genotype 1a full length construct (Blight et al., 2003). For studies involving human serum, standard culture medium (which contains 10% fetal bovine serum) and assay conditions were maintained.
# as §2
# [1] = Primary HCV replicon cell assay, cytotoxicity; details: human, HCV replicon cells (primary assay), CC50, primary assay
# Experimental: as §4, §2
# [2] = Cytotoxicity by neutral red dye uptake in 2.2.15 cells; details: human
# Experimental: as §1, §2
# [3] = test system: HCV replicon, sub-genomic CON1, genotype 1b; test: 3-day HCV replicon assay in AVA5 cells (intracellular HCV RNA, blot hybridization); type: cell-based, Hepatitis C Virus; details: Genotype 1b replicon, 3 days; first compound listed for combinations
# Experimental: as §4, §2
# AVA5 cells = test: Cytotoxicity by neutral red dye uptake in AVA5 cells; type: cell-based; details: Genotype 1b replicon, 3 days
# [4] = 2.2.15 cells, nine daily doses, read-out: Extracellular virion DNA EC50
# [5] = 2.2.15 cells, nine daily doses, read-out: Extracellular virion DNA EC90
# [6] = 2.2.15 cells, nine daily doses, read-out: Intracellular HBV RI EC50
# [7] = 2.2.15 cells, nine daily doses, read-out: Intracellular HBV RI EC90
smiles,measurement,setting,value
CSc1cnc(NC(=O)c2ccccc2O)s1,melting point,,225 to 226 °C
CCCCSc1cnc(NC(=O)c2ccccc2OC(C)=O)s1,melting point,,100 to 101 °C
CCCCSc1cnc(NC(=O)c2ccccc2O)s1,melting point,,180 to 181 °C
CCCCS(=O)(=O)c1cnc(NC(=O)c2ccccc2O)s1,melting point,,235 to 236 °C
CSc1cnc(NC(=O)c2ccc(OC(C)=O)cc2)s1,melting point,,193.3 to 195.5 °C and 193.5 to 195.5 °C
CSc1cnc(NC(=O)c2cccc(OC(C)=O)c2)s1,melting point,,135.2 to 136.2 °C
"CC(C)(C)C(=O)OCOP(=O)(COCCn1cnc2c(N)ncnc21)OCOC(=O)C(C)(C)C [ADV, adefovir dipovoxil]",EC50,HBV; [4],1 ± 0.2 µM
same,EC90,HBV; [5],3 ± 0.3 µM
same,CC50,2.2.15 cells,> 300 µM
same,EC90,Wild-type HBV,7 ± 0.8 µM
same,EC50,Wild-type HBV,2 ± 0.2 µM
same,EC50,"HBV Mutant L180M/M204V; L180M/M204V, read-out: EC50",2.5 ± 0.3 µM
same,EC90,"HBV Mutant L180M/M204V; L180M/M204V, read-out: EC90",7.6 ± 0.8 µM
same,EC50,"HBV Mutant L180M; L180M, read-out: EC50",2.6 ± 0.3 µM
same,EC90,"HBV Mutant L180M; L180M, read-out: EC90",7.3 ± 0.8 µM
same,EC50,"HBV Mutant M204I; M204I, read-out: EC50",2.5 ± 0.3 µM
same,EC90,"HBV Mutant M204I; M204I, read-out: EC90",8.5 ± 1 µM
same,EC50,"HBV Mutant M204V; M204V, read-out: EC50",1.5 ± 0.2 µM
same,EC90,"HBV Mutant M204V; M204V, read-out: EC90",7.2 ± 0.8 µM
same,EC50,"HBV Mutant N236T; N236T, read-out: EC50",11 ± 1.3 µM
same,EC90,"HBV Mutant N236T; N236T, read-out: EC90",32 ± 3.6 µM
"CC(=O)Oc1ccccc1C(=O)Nc1ncc(S(C)(=O)=O)s1 [Compound 7, 2-(5-(methylsulfonyl)thiazol-2-ylcarbamoyl)phenyl acetate]",EC50,HCV replicon; Hepatitis C virus,> 10 µM
same,EC90,HCV replicon; Hepatitis C virus,> 10 µM
same,CC50 at 3 days,[1],20 µM
"CS(=O)(=O)Oc1ccccc1C(=O)Nc1nccs1 [Compound 11, 2-(thiazol-2-ylcarbamoyl)phenyl methanesulfonate]",EC50,HCV replicon; Hepatitis C virus,> 10 µM
same,EC90,HCV replicon; Hepatitis C virus,> 10 µM
same,CC50 at 3 days,[1],> 100 µM
same,melting point,,185.5 to 187.8 °C
"CS(=O)(=O)c1csc(NC(=O)c2ccccc2O)n1 [Compound 60, 2-hydroxy-N-(4-(methylsulfonyl)thiazol-2-yl)benzamide]",EC90,HCV replicon,0.654 µM
same,EC90,HCV replicon; Hepatitis C virus,0.585 µM
"CC(=O)Oc1ccccc1C(=O)Nc1nc(S(C)(=O)=O)cs1 [Compound 62, 2-{[4-(methylsulfonyl)-1,3-thiazol-2-yl]carbamoyl}phenyl acetate]",EC50,HCV replicon; Hepatitis C virus,> 10 µM
same,EC90,HCV replicon; Hepatitis C virus,> 10 µM
same,CC50 at 3 days,[1],> 100 µM
"Nc1ccn([C@@H]2CS[C@H](CO)O2)c(=O)n1 [LMV, lamivudine]",Selectivity Index Virion,"HBV; CC50/EC90, extracellular virion DNA",15646
same,Selectivity Index RI,"HBV; CC50/EC90, intracellular HBV RI",4267
same,EC50,"HBV; Hepatitis B virus, read-out: Intracellular HBV RI EC50",0.16 ± 0.03 µM
same,EC50,"HBV; Hepatitis B virus, 2.2.15 cells, Table 3 experiment, read-out: HBV R.I. EC50",0.16 ± 0.02 µM
same,EC90,"HBV; Hepatitis B virus, 2.2.15 cells, Table 3 experiment, read-out: HBV R.I. EC90",0.56 ± 0.07 µM
same,EC50,"HBV; Hepatitis B virus, 2.2.15 cells, Table 3 experiment, read-out: Virion production EC50",0.05 ± 0.01 µM
same,EC90,"HBV; Hepatitis B virus, 2.2.15 cells, Table 3 experiment, read-out: Virion production EC90",0.15 ± 0.02 µM
same,EC50,"HBV; Hepatitis B virus, 2.2.15 cells, nine daily doses, read-out: Extracellular virion DNA EC50",0.05 ± 0.01 µM
same,EC90,"HBV; Hepatitis B virus, 2.2.15 cells, nine daily doses, read-out: Extracellular virion DNA EC90",0.15 ± 0.02 µM
same,EC90,"HBV; Hepatitis B virus, 2.2.15 cells, nine daily doses, read-out: Intracellular HBV RI EC90",0.55 ± 0.06 µM
same,CC50 at 9 days,[2],2350 ± 88 µM
same,EC90,"Wild-type HBV; Hepatitis B virus, Huh-7",0.9 ± 0.2 µM
same,EC50,"Wild-type HBV; Hepatitis B virus, Huh-7",0.2 ± 0.1 µM
same,EC50,"HBV Mutant L180M/M204V; Hepatitis B virus, Huh-7",> 100 µM
same,EC90,"HBV Mutant L180M/M204V; Hepatitis B virus, Huh-7",> 100 µM
same,EC50,"HBV Mutant L180M; Hepatitis B virus, Huh-7",16 ± 2 µM
same,EC90,"HBV Mutant L180M; Hepatitis B virus, Huh-7",46 ± 5.6 µM
same,EC50,"HBV Mutant M204I; Hepatitis B virus, Huh-7",> 100 µM
same,EC90,"HBV Mutant M204I; Hepatitis B virus, Huh-7",> 100 µM
same,EC50,"HBV Mutant M204V; Hepatitis B virus, Huh-7",> 100 µM
same,EC90,"HBV Mutant M204V; Hepatitis B virus, Huh-7",> 100 µM
same,EC50,"HBV Mutant N236T; Hepatitis B virus, Huh-7",0.3 ± 0.1 µM
same,EC90,"HBV Mutant N236T; Hepatitis B virus, Huh-7",1.2 ± 0.2 µM
O=C(Nc1ncc(Cl)s1)c1ccccc1O [RM4848],EC50,HBV; [4],0.37 ± 0.07 µM
same,EC90,HBV; [5],1.7 ± 0.2 µM
same,CC50,2.2.15 cells,> 100 µM
same,EC50,[3],> 20 µM
same,EC90,[3],> 20 µM
same,CC50,AVA5 cells,15 ± 0.1 µM
Cc1cccc(C(=O)Nc2ncc(Cl)s2)c1O [RM4851],EC50,HBV; [4],> 10 µM
same,EC90,HBV; [5],> 10 µM
same,EC50,HBV; [6],> 10 µM
same,EC90,HBV; [7],> 10 µM
same,CC50,2.2.15 cells,> 100 µM
same,EC50,[3],> 20 µM
same,EC90,[3],> 20 µM
same,CC50,AVA5 cells,5.6 ± 0.3 µM
Cc1ccc(C(=O)Nc2ncc(Cl)s2)c(O)c1 [RM4852],EC50,HBV; [4],1 ± 0.1 µM
same,EC90,HBV; [5],3.3 ± 0.3 µM
same,EC50,HBV; [6],2.7 ± 0.3 µM
same,EC90,HBV; [7],6.3 ± 0.7 µM
same,CC50,2.2.15 cells,> 100 µM
same,EC50,[3],> 20 µM
same,EC90,[3],> 20 µM
same,CC50,AVA5 cells,6.7 ± 0.4 µM
